The test system of one series is PC3 tumor vessels. The experiment in a line: PECAM. Format: in vivo, nude mice. The following applies: treated tumors, 3 mg/ml in drinking water; untreated 4.6 ± 2.1/hpf, p = 0.04.
The target in series [1] is T1, thrombin (Homo sapiens, UniProt P00734). The experiment in a line: Plasma thrombin clotting time after oral treatment. Format: in vivo, mouse. The settings on record: 3 mg/ml in drinking water.
The next series relates to PC3-luc tumors. Put plainly: PC3-luc tumor growth in nude mice. Format: in vivo. The following applies: oral 3 mg/ml in drinking water.
The test system of another series is human platelets. The following applies: cited from earlier work.
For series [2], the target named is thrombin. The following applies: direct thrombin inhibitor; cited from earlier work.
Series [3] has as its target T1, thrombin. The following applies: cited from earlier work.
The subject of series [4] is carotid artery thrombosis. The following applies: cited from earlier work.
For series [5], the system named is PC3-luc cells. Format: cell-based, human.
Series [6] has as its system PC3-luc cells. The experiment in a line: Matrigel invasion assay, α-thrombin-stimulated. Format: cell-based, human. The settings on record: 1 nM α-thrombin overnight, p = 0.02, 3 independent experiments.
The conditions of series [7]: 3 mg/ml in drinking water; cited from earlier work.
The next series is described as follows: Tail bleeding time. Format: in vivo, mouse. The settings on record: 3 mg/ml in drinking water, 5 days; n = 6; untreated 79±11 sec (n = 5), p = 0.38.
The conditions of series [8]: administered intravenously; cited from earlier work.
The conditions of series [9]: cited from earlier work.

Non-standard residues stand in square brackets, D forms with d. Residues, ends and D or L forms follow the SMILES beside them. Oic = O=C(O)[C@@H]1C[C@@H]2CCCC[C@@H]2N1; Phe(4-Me) = Cc1ccc(C[C@H](N)C(=O)O)cc1

This is an account of results in paper PMC3552554 (Thrombosis and haemostasis, 2010).

The Ki is the dissociation constant of the complex between target and ligand, obtained from inhibition or displacement. By IC50 is commonly meant the midpoint of a concentration-inhibition curve. Usually clearance stands for the volume of plasma or blood freed of the substance per unit of time.

For `Cc1ccc(C[C@H](NC(=O)[C@@H](C)NC(=O)[C@@H]2CCCN2C(=O)[C@@H]2C[C@@H]3CCCC[C@@H]3N2C(=O)[C@H](N)CCCNC(=N)N)C(N)=O)cc1` [FM19, D-Arg-Oic-Pro, D-Ala-Phe(pMe)] (H-[dR][Oic]P[dA][Phe(4-Me)]-NH2; N-terminus and C-terminus assumed), the “number of large vessels (> 10 microns)” value in the series with PC3 tumor vessels is on record as 1.4 ± 1.4 /hpf. Further, on thrombin [1] (5 days, n = 6, untreated 16±1 sec, p < 0.003), the thrombin clotting time came to 22 ± 1 s. In addition, the “increase in the thrombin clotting time” value at thrombin [1] (treated vs untreated) was 1.4 fold. The compound also displayed a mean tumor weight with PC3-luc tumors (5 weeks, 10 tumors, untreated 0.82 ± 0.32 g, p = 0.04) of 0.5 ± 0.31 g. In addition, in the series with PC3-luc tumors (day 14 to day 28, bioluminescence normalized to day 7, untreated 0.55 ± 0.35, p = 0.038), the “mean tumor growth rate” value stood at 0.26 ± 0.17 fold change/day. Moreover, in the series on human platelets, the “inhibits the threshold of α-thrombin-induced human platelet aggregation” value was 8.4 ± 4.7 µM. The Ki on thrombin [2] is 4.4 ± 2.4 µM. For the same compound, the “prolongation of the plasma thrombin clotting time” value on thrombin [3] (3 mg/ml in drinking water, after 5 days) is reported as 1.4 times. The “prolongation of the thrombin clotting time” value at thrombin [3] (5 mg/ml steady-state oral) is 7.3 fold. Besides, the “effect on time to carotid artery occlusion” value in [4] (3 mg/ml in drinking water, rose Bengal assay) is “does not prolong the mouse bleeding time or delay time to carotid artery occlusion”. Moreover, the “effect on induced arterial thrombosis” value in [4] (5 mg/ml in drinking water) was “delays induced arterial thrombosis”. Also, in series [4] (5 mg/ml steady-state oral), the “prolongation of the arterial thrombosis time” value is listed as 2.7 fold. In the series on PC3-luc cells [5], the IC50 turned out to be 15 µM. The “concentration that inhibited α-thrombin-induced calcium mobilization” value in the series on PC3-luc cells [5] (PC3-luc cells, 1 nM α-thrombin) lay in the range of 1 to 100 µM. Further, the “lowest concentration that significantly decreased the number of invading cells” value with PC3-luc cells [6] stood at 0.1 µM.

As to `Cc1ccc(C[C@H](NC(=O)[C@@H](C)NC(=O)[C@@H]2CCCN2C(=O)[C@@H]2C[C@@H]3CCCC[C@@H]3N2C(=O)[C@H](N)CCCN=C(N)N)C(N)=O)cc1` [FM19, D-Arg-Oic-Pro, D-Ala-Phe(pMe)] (H-[dR][Oic]P[dA][Phe(4-Me)]-NH2), in [7], the “effect on mouse bleeding time” value is “does not prolong the mouse bleeding time”. Further, the “mean tail bleeding time” value in “Tail bleeding time” is 92 ± 8 s. Further, in series [8], the clearance was 0.492 ± 0.306 L/h/kg and the t1/2α is reported as 32.5 ± 2.9 min. Also, the plasma concentration in series [9] (5 mg/ml steady-state oral) is 0.173 ± 0.016 µg/mL. The steady-state plasma concentration in series [9] (oral 3 mg/ml in the drinking water, after 5 days) was 80 ng/mL.
